Some test systems named below: SK-MEL-5 melanoma; OVCAR-8 ovarian; 786-0 renal; K-562 leukemia; ACHN renal; MDA-MB-231 breast; OVCAR-4 ovarian; UACC-62 melanoma; KM12 colon; U251 CNS.
Common to all, as to assay: growth of human tumour cells (NCI), 48 h

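Cultured in 96-well plates, cells were exposed to test compound for 48 hours across five concentrations. GI50: concentration for 50% inhibition of growth. Definition used: TGI = concentration required for complete inhibition of growth.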

As for `Cc1nn(CNc2ccccc2C(F)(F)F)c(=S)n1/N=C/c1cccc2cccnc12`, the GI50 in the experiment on SK-MEL-5 melanoma is more than 100 µM; in the experiment with OVCAR-8 ovarian, more than 100 µM; in the experiment on 786-0 renal, more than 100 µM; in the experiment on K-562 leukemia, 35.8 µM; in the experiment on ACHN renal it was 95.3 µM; with MDA-MB-231 breast, 23.4 µM. Also, the GI50 was 44.3 µM in the experiment with OVCAR-4 ovarian, 33.8 µM in the experiment with UACC-62 melanoma and 43.7 µM in the experiment on KM12 colon. The TGI was more than 100 µM in the experiment on SK-MEL-5 melanoma; more than 100 µM in the experiment on OVCAR-8 ovarian; more than 100 µM in the experiment with 786-0 renal; more than 100 µM with K-562 leukemia; more than 100 µM in the experiment with ACHN renal; 91.7 µM in the experiment with MDA-MB-231 breast. In addition, the TGI in the experiment with OVCAR-4 ovarian, with UACC-62 melanoma and in the experiment on KM12 colon was more than 100 µM in each case.
As for `Cc1c(C)n(CCCN2CCN(C)CC2)c2ccc(Oc3cccc(C(=O)N4CCN(CCc5ccc(F)cc5)CC4)c3)cc12`, the GI50 was 1.71 µM in the experiment with SK-MEL-5 melanoma; 1.53 µM in the experiment on 786-0 renal; 1.67 µM in the experiment on ACHN renal; 1.82 µM in the experiment with MDA-MB-231 breast; 1.84 µM with OVCAR-4 ovarian; 1.87 µM in the experiment on UACC-62 melanoma. Further, the results for the GI50 in the experiment on U251 CNS and in the experiment with KM12 colon were 1.66 µM and 1.93 µM, respectively. Also, the TGI with SK-MEL-5 melanoma was found to be 3.08 µM; in the experiment with 786-0 renal, 2.95 µM; with ACHN renal, 3.06 µM; in the experiment with MDA-MB-231 breast, 3.43 µM; with OVCAR-4 ovarian, 3.92 µM; in the experiment with UACC-62 melanoma, 3.58 µM. Also, the TGI was 3.28 µM in the experiment with U251 CNS and 3.64 µM in the experiment on KM12 colon.
For the molecule `Cc1ccc(O)c(NC(=O)c2cccc(Nc3ccnc(C(F)(F)F)c3)c2)c1`, the GI50 was 2.15 µM with SK-MEL-5 melanoma; 5.52 µM in the experiment on OVCAR-8 ovarian; 8.22 µM in the experiment with 786-0 renal; 9.65 µM in the experiment with ACHN renal; 11.6 µM with MDA-MB-231 breast; 2.97 µM in the experiment with OVCAR-4 ovarian. Also, the GI50 was 3.82 µM in the experiment with UACC-62 melanoma, 15.6 µM in the experiment with U251 CNS and 11 µM in the experiment with KM12 colon. For the same molecule, the TGI in the experiment on SK-MEL-5 melanoma worked out at 14 µM; in the experiment on OVCAR-8 ovarian it was 19.7 µM; in the experiment with 786-0 renal it was 51.5 µM; in the experiment on ACHN renal, 48.8 µM; in the experiment with MDA-MB-231 breast, 44.8 µM; with OVCAR-4 ovarian, 31.2 µM. Also, the values for the TGI with UACC-62 melanoma, in the experiment on U251 CNS and in the experiment with KM12 colon were 20.7 µM, 37.6 µM and 24.8 µM, respectively.
With `CC1Cc2c(Cl)ncnc2N(C)c2ccc(Cl)cc21` (stereo not drawn), the GI50 with SK-MEL-5 melanoma was 0.185 µM; with OVCAR-8 ovarian, 0.394 µM; with 786-0 renal, 0.321 µM; with K-562 leukemia, 0.496 µM; with ACHN renal, 0.348 µM; with MDA-MB-231 breast, 0.274 µM. Moreover, the GI50 with OVCAR-4 ovarian is 0.422 µM; with UACC-62 melanoma it was 0.406 µM; in the experiment on U251 CNS it was 0.378 µM. Further, the TGI was 0.338 µM in the experiment on SK-MEL-5 melanoma; 20.6 µM in the experiment with OVCAR-8 ovarian; more than 100 µM with 786-0 renal; more than 100 µM with K-562 leukemia; more than 100 µM with ACHN renal; 0.691 µM in the experiment with MDA-MB-231 breast. Further, the figures for the TGI with OVCAR-4 ovarian, with UACC-62 melanoma and with U251 CNS were more than 100 µM, 69.2 µM and more than 100 µM, respectively.
`O=c1c2ccccc2sc2c(NCCCNCCO)nc3ccccc3c12`: the GI50 is 1.64 µM in the experiment with SK-MEL-5 melanoma; 1.97 µM in the experiment with OVCAR-8 ovarian; 1.49 µM in the experiment on 786-0 renal; 1.39 µM with ACHN renal; 1.13 µM in the experiment with MDA-MB-231 breast; 2.17 µM in the experiment with OVCAR-4 ovarian. The results for the GI50 in the experiment with UACC-62 melanoma, with U251 CNS and in the experiment on KM12 colon were 1.89 µM, 1.76 µM and 1.77 µM, respectively. The TGI in the experiment with SK-MEL-5 melanoma stood at 3.03 µM; in the experiment on OVCAR-8 ovarian it was 4.46 µM; in the experiment with 786-0 renal, 2.92 µM; in the experiment with ACHN renal, 2.81 µM; with MDA-MB-231 breast, 2.63 µM; in the experiment with OVCAR-4 ovarian it was 6.37 µM. In addition, the TGI in the experiment on UACC-62 melanoma came out at 3.85 µM; with U251 CNS, 3.57 µM; with KM12 colon it was 3.48 µM.
`O=C1NC(=C(Cl)Cl)/C(=N/S(=O)(=O)N2CCCCC2)N1`: the GI50 in the experiment with OVCAR-8 ovarian was 2.1 µM; in the experiment with 786-0 renal, 2.79 µM; with ACHN renal it was 1.96 µM; in the experiment on MDA-MB-231 breast, 1.85 µM; with OVCAR-4 ovarian, 1.8 µM; in the experiment on UACC-62 melanoma it was 1.61 µM. In addition, the GI50 in the experiment on U251 CNS was 1.71 µM; in the experiment on KM12 colon, 0.499 µM. The TGI amounted to 4.6 µM with OVCAR-8 ovarian; 7.74 µM in the experiment with 786-0 renal; 3.42 µM with ACHN renal; 3.42 µM in the experiment on MDA-MB-231 breast; 3.47 µM in the experiment on OVCAR-4 ovarian; 3.04 µM in the experiment on UACC-62 melanoma. Further, the results for the TGI in the experiment with U251 CNS and with KM12 colon were 3.12 µM and 10.3 µM, respectively.
On to `OCC1C(OCc2ccccc2)C(OCc2ccccc2)C(OCc2ccccc2)CN1Cc1ccccc1` (stereo not drawn), for which the TGI in the experiment on OVCAR-8 ovarian is more than 100 µM; with 786-0 renal, more than 100 µM; in the experiment on K-562 leukemia, more than 100 µM; in the experiment with ACHN renal, 17.9 µM; with MDA-MB-231 breast, more than 100 µM; in the experiment with OVCAR-4 ovarian, more than 100 µM. Further, the TGI with UACC-62 melanoma, with U251 CNS and in the experiment with KM12 colon was more than 100 µM in each case.
Take `O=C(CSc1nc2c(n1Nc1ccccc1)-c1ccccc1SC2)Nc1nc(-c2ccc(Cl)cc2)cs1`: the GI50 in the experiment on SK-MEL-5 melanoma was more than 100 µM; in the experiment on OVCAR-8 ovarian it was 6.42 µM; in the experiment with 786-0 renal, 12.7 µM; in the experiment on ACHN renal, 35.4 µM; in the experiment on MDA-MB-231 breast it was 33.3 µM; in the experiment on UACC-62 melanoma it was 13.5 µM. Besides, the GI50 in the experiment on U251 CNS was 9.91 µM; with KM12 colon it was more than 100 µM. Also, the TGI was more than 100 µM in the experiment on SK-MEL-5 melanoma; more than 100 µM in the experiment on OVCAR-8 ovarian; 34.8 µM with 786-0 renal; more than 100 µM with ACHN renal; more than 100 µM in the experiment with MDA-MB-231 breast; more than 100 µM in the experiment with UACC-62 melanoma. The TGI with U251 CNS was 88.2 µM; in the experiment with KM12 colon, more than 100 µM.
In the case of `O=C(/C=C\c1ccccc1O)c1ccc(O)cc1O`, the TGI in the experiment with SK-MEL-5 melanoma, in the experiment on OVCAR-8 ovarian, in the experiment with 786-0 renal, with K-562 leukemia, in the experiment on ACHN renal and in the experiment on OVCAR-4 ovarian was more than 100 µM each time. The TGI in the experiment with UACC-62 melanoma, in the experiment with U251 CNS and in the experiment with KM12 colon was more than 100 µM each time.

For the origin of these results see PubChem BioAssay (NCI).
